{"source": "patent US7273964B1", "about": "“Non-human transgenic animals for the study of neurodegenerative syndromes” (Scuola Internazionale Superiore Di Studi Avanzati, priority 1999, dated 2007)", "key": {"anti-NGF mice [1]": {"test_system": "anti-NGF mice", "assay": "Number of ChAT-positive neurons in the basal forebrain (immunohistochemistry, stereology)", "format": "in vivo, mouse", "procedure": "(§1) Peptide 18 treatment. Prior to the injections, phages carrying the peptide 18 or a peptide raised against NT-3 (negative control) were amplified by infecting 2.5 ml of an overnight colture of DH5alpha F′ bacteria with 5 ml of phage supernatant in 1 liter of 2TY. After an overnight incubation at 30° C., bacteria were removed by centrifugation at 6000 rpm for 20 min at 4° C. Phage particles were precipitated by adding 1 volume of PEG/NaCl (20% PEG6000, 2.5 M NaCl) to 5 volumes of the supernatant. After mixing, the solution was left stand overnight at 4° C. and spinned at […] for 30 min. The pellet was resuspended in 40 ml of […], kept at 65° C. and then spun for 5 min at 11000 rpm.\nOne volume of PEG/NaCl was mixed to 5 volumes of the phage containing supernatant and incubated for 2 hrs at 4° C. After spinning at 11000 rpm for 5 min., the pellet was resuspended in PBS, spun again to remove cell debris and filtered through a 0.22 μm sterile filter. The phage suspension was then titred by infecting 100 μl of an overnight colture of DH5α F′, mixed with LB top agar and plated on LB plates. Phages carrying the carrying the peptide 18 or a peptide binder of anti-NT-3 (10^9–10^12 pfu/μl) were injected in both lateral ventricles. Phages were injected at postnatal day 53 (P53) and mice were killed 1 week after the injection. For the injection, mice were anaesthetised with 2,2,2-Tribromoethanol (0.2 ml/10 g body weight of a 1.2% solution). One μl of phage suspension was injected using a 17 gauge needle connected to a 10 μl Hamilton by a polyethylene cannula, 1 mm lateral and 1 mm anterior to Bregma. After the injection, animals were treated with ampicillin (1 mg/kg) every day, in order to prevent any bacterial infection. Experiment were performed three times for a total number of animals equal to 14 for each group of treatment.\nL-thyroxine treatment. […]\nQuantitative stereology. The volume of basal forebrain and the number of BFCNs was evaluated in 9 anti-NGF transgenic mice and 8 transgenic controls by using a stereological approach (Ruberti, 2000)."}, "[2]": {"test_system": "visual cortex slices of anti-NGF mice", "assay": "Long Term Potentiation (LTP) in visual cortex slices, electrophysiological recordings", "set-up": "species or system mouse", "details": "12 µg/animal/day for 4 weeks", "procedure": "Visual cortex slices preparation and electrophysiological recordings. Postsynaptic field potentials were recorded in […] in vitro slices containing visual cortex, following previously described methods (Kirkwood and Bear, 1994). Anti-NGF and transgenic control mice were deeply anesthetized with urethane and then decapitated. The brain was rapidly removed and visual cortex slices (400 μm) prepared and superfused in a submerged recording chamber at 33° C. with gassed artificial cerebrospinal fluid (aCSF) at a rate of 4 ml/min.\nThe amplitude of the maximum negative field potential in layer 2/3 was used as a measure of the evoked population excitatory current. LTP was induced by 3 trains of high frequency stimulation (HFS, 100 Hz, 1 s). Experiments were performed at different postnatal ages 6 months, when the functional maturation of the visual cortex is completed. Acetylcholine dependence of LTP was investigated by locally delivering through the recording pipette. […] The magnitude of both LTP was measured starting 30 min after the end of the corresponding conditioning protocol. Data for each experimental group were pooled and expressed as percentage change from control baseline, PCCB±S.E.M. Statistical comparison was done by applying a t-test and Mann-Whitney Rank Sum Test between baseline and LTP mean values."}, "free NGF": {"test_system": "free NGF", "assay": "Determination of free NGF by ELISA", "format": "in vivo, mouse", "procedure": "Determination of free NGF. The levels of free NGF (i.e. NGF not bound to the transgenic antibodies) in the different tissues was determined by an ELISA assay. This assay exploits the property of αD11 antibody to recognize NGF in a two-site ELISA format 16. Samples of blood serum or of tissue extracts (derived as in Molnar et al., 1998) were added to wells coated with mAb αD11 (coating concentration of […]). After incubation for 2 hours at r.t. and extensive washing with PBS-0.05% Tween 20, followed by PBS, free NGF, not engaged with transgenic αD11, was detected using an affinity-purified rabbit anti-NGF polyclonal antiserum."}, "anti-NGF mice [3]": {"test_system": "anti-NGF mice", "assay": "AT8 (phosphorylated tau) immunohistochemistry in entorhinal cortex", "format": "in vivo, mouse", "procedure": "as §1\nOne volume of PEG/NaCl was mixed to 5 volumes of the phage containing supernatant and incubated for 2 hrs at 4° C. After spinning at 11000 rpm for 5 min., the pellet was resuspended in PBS, spun again to remove cell debris and filtered through a 0.22 μm sterile filter. The phage suspension was then titred by infecting 100 μl of an overnight colture of DH5α F′, mixed with LB top agar and plated on LB plates. Phages carrying the carrying the peptide 18 or a peptide binder of anti-NT-3 (10^9–10^12 pfu/μl) were injected in both lateral ventricles. Phages were injected at postnatal day 53 (P53) and mice were killed 1 week after the injection. […]"}, "anti-NGF mice [4]": {"test_system": "anti-NGF mice", "assay": "Restoration of the cholinergic phenotype in the basal forebrain of anti-NGF mice by NGF (minipump or NGF-secreting fibroblasts, lateral ventricle)", "format": "in vivo, mouse", "details": "2 months-old anti-NGF mice; NGF into lateral ventricle", "procedure": "The restoration of the cholinergic phenotype in the basal forebrain was achieved by two different approaches. In a first set of experiments, NGF was delivered using slow releasing minipumps (Alzet, USA) A rubber capillary tube was inserted in the lateral ventricle and then connected by means of an osmotic minipump to a <> of the subcutaneous layer. This pump was filled by NGF (30–100 μg) diluted with Ringer-Locke physiological saline. Experiments were performed in 2 months-old transgenic mice and controls.\nIn another set of experiments, animals of the same age of previous ones were treated by an implant of fibroblasts genetically modified to secrete NGF. The fibroblasts were injected in the lateral ventricle at a 2×10^5 cells/μl concentration. The injection volume was 1.5 μl/animal. This second method allowed to verify, by ELISA, the constancy of NGF production over 4 weeks after the implantation."}, "[5]": {"test_system": "gastrocnemius muscle of anti-NGF mice", "assay": "Reversibility of the muscular dystrophy in anti-NGF mice by NGF local administration", "format": "in vivo, mouse", "details": "45 day old anti-NGF mice, 7, 15 and 30 days after injection", "procedure": "All the experiments were carried out on 45 day old mice, when the serum level of the anti-NGF antibody is still not at the highest level (observed 60 days after the birth). The NGF was administered locally by different methods: (a) by intramuscular injection of NGF, (b) by intramuscular injection of a viral recombinant vector (adenovirus) encoding for NGF cDNA or (c) by the implant of NGF secreting fibroblasts. All the administration routes included the injection or implant in the gastrocnemius muscle, one of the skeletal muscles affected by muscular dystrophy. The injections and implants were carried out on the right leg, while the gastrocnemius muscle of the left leg was used as control. A) NGF was injected as pellet, consisting of diazocellulose mixed NGF in borate buffer at pH 8.0 for 72 hours and following neutralisation by glycine saturated solution (Hendry, 1982). This method allows the exact localisation and slow release of this neurotrophin. Different NGF concentrations were used, comprised in the range from […] and 2 mg for each animal. […]\nTo verify the effect of the NGF administration the animals were sacrificed 7, 15 and 30 days after the injection. The injected and contralateral muscles were collected and analysed by histological and immunohistochemical techniques to verify the attenuation of the dystrophy and the restoration of usual innervation."}, "αD11 antibody": {"test_system": "αD11 antibody", "assay": "Phage ELISA assay", "format": "binding", "details": "phages selected against αD11", "procedure": "Phage ELISA assay. Ninety-six well plates were coated with 100 μl of rat anti-pill monoclonal antibody (57D1, gift by P. Delmastro) diluted in coating buffer (1 μg/ml 50 mM carbonate buffer pH 9.6) and incubated overnight at 4° C. Palts were washed in PBST and blocked in 5% milk/PBST for 1 h at 37° C. on a rocking platform. After 1 brief wash, a mixture of cleared phage supernatant (50 μl) and 50 μl of 5% milk/PBST was added and incubated for 1 h at 37° C. The plates were washed and 100 μl of αD11 antibody dilution (1 μg/ml in 5% milk/PBS) were added and left overnight at 4° C. After washing, an alkaline phosphatase conjugated anti-mouse antibody was added and left at 4° C. for 4 hrs. The reaction was developed by adding 200 μl of the substrate solution (10% dietanolamine, 5 mM MgCl2 pH 9.6) for 2 min followed by an incubation at 37° C. for 1 h in 100 μl of developing solution (1 mg/ml NTB in 10% dietanolamine, 5 mM MgCl2, pH 9.6).\nPositive phage clones were analyzed by the single strand DNA sequencing. The positive phage clones were sequenced and re-tested using dot blot experiments towards the αD11 antibody. At least twenty were analyzed."}, "[6]": {"details": "intraperitoneal, 10 μg daily from P45 to P62"}, "[7]": {"details": "intraperitoneal, daily from P45 to P62"}, "[8]": {"details": "phage injected intraventricularly"}}, "note": "“Also recorded” adds a separate entry of the source."}
{"molecule": "N[C@@H](Cc1cc(I)c(Oc2cc(I)c(O)c(I)c2)c(I)c1)C(=O)O", "note": "[LT4, L-thyroxine, reference compound]", "values": [{"measurement": "number of ChAT-positive neurons in the basal forebrain, compared with transgenic control", "setting": "anti-NGF mice [1]; [6]", "result": "equal to that observed in transgenic control animals"}, {"measurement": "number of ChAT-positive neurons, increase over not-treated or vehicle-treated anti-NGF mice", "setting": "anti-NGF mice [1]; [6]", "result": 40, "unit": "%"}, {"measurement": "rescue of synaptic plasticity (LTP)", "setting": "[2]", "result": "only a mild rescue"}, {"measurement": "free NGF in brain, blood serum and submandibular gland, compared with transgenic control", "setting": "free NGF; [7]", "result": "reached almost the levels detectable in transgenic control animals"}, {"measurement": "free NGF in brain, blood serum and submandibular gland, compared with vehicle", "setting": "free NGF; [7]", "result": "higher than that detected in animals treated with vehicle"}, {"measurement": "AT8 labeling in the somatic compartment of neurons of the entorhinal cortex", "setting": "anti-NGF mice [3]; [7]", "result": "disappearance of AT8 labeling"}]}
{"molecule": "NGF: Nerve Growth Factor, neurotrophin, given as pellet, adenoviral cDNA vector, minipump infusion or via NGF-secreting fibroblasts", "values": [{"measurement": "ChAT expression in nuclei of the basal forebrain and behaviour (cholinergic phenotype)", "setting": "anti-NGF mice [4]", "result": "phenotype reversibility to be observed"}, {"measurement": "muscle fibre morphology and cholinergic and peptidergic innervation", "setting": "[5]", "result": "re-assumed an usual appearance"}]}
{"molecule": "RGSRHDL [peptide 18]", "values": [{"measurement": "number of ChAT positive neurons in the basal forebrain", "setting": "anti-NGF mice [1]; phage injected in both lateral ventricles at P53, killed 1 week later", "result": "restored"}, {"measurement": "free NGF in blood serum and submandibular gland", "setting": "free NGF; [8]", "result": "equal to animals treated with the non related peptide binder of anti-NT-3"}, {"measurement": "free NGF in brain", "setting": "free NGF; [8]", "result": "increase only at the level basal forebrain"}, {"measurement": "binding activity of phage clone to αD11", "setting": "αD11 antibody", "result": "stronger binding activity"}, {"measurement": "AT8 labeling (hyperphosphorylated tau) in the somatic compartment of neurons of the entorhinal cortex", "setting": "anti-NGF mice [3]; phage injected intraventricularly at P53", "result": "not paralleled by the disappearance of AT8 labeling; also recorded: decreases the expression in the soma"}]}
